Data: patent US5631401A, “Inhibitors of protein farnesyltransferase and squalene synthase” (Abbott Laboratories, priority 1995, dated 1997)

Columns and labels:
[1] = target: T1, Rat brain protein farnesyltransferase (Rattus norvegicus, UniProt Q02293+Q04631); assay: In vitro inhibition of protein farnesyltransferase (biotin-lamin substrate, scintillation proximity assay); format: biochemical; settings: for inhibition at 10 µM: compared to uninhibited control; for inhibition at 1 µM: 1 μM (footnote *), read-out: % Inhibition at 1 μM (protein farnesyltransferase, values marked *)
T1 construct: The enzyme was purified according to Reiss, Y., et al., Cell, 62: 81-88 (1990), utilizing steps one through three; from tissue; host or cells: rat brain
Procedure, shortened: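 Protein farnesyltransferase isolated from rat brain was purified following steps one through three of the Reiss et al. method, giving a specific activity of about 10 nmol substrate farnesylated/mg enzyme/hour. Activity was measured with a commercial Amersham scintillation proximity assay kit, using biotin-lamin as the acceptor substrate and radioactive farnesyl diphosphate as the donor.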

[2] = target: T2, Rat liver microsomal squalene synthase (Rattus norvegicus, UniProt Q02769); assay: In vitro inhibition of squalene synthase (rat liver microsomes, 3H-farnesyl diphosphate); format: biochemical; settings: for inhibition at 10 µM: 10 μM (footnote *), read-out: % Inhibition at 10 μM (squalene synthase, values marked *); for inhibition at 1 µM: compared to controls with no test compound
T2 construct: Rat liver microsomes, the source of enzyme, were prepared; from tissue; host or cells: rat liver microsomes
T2 sequence (Q02769 1-416): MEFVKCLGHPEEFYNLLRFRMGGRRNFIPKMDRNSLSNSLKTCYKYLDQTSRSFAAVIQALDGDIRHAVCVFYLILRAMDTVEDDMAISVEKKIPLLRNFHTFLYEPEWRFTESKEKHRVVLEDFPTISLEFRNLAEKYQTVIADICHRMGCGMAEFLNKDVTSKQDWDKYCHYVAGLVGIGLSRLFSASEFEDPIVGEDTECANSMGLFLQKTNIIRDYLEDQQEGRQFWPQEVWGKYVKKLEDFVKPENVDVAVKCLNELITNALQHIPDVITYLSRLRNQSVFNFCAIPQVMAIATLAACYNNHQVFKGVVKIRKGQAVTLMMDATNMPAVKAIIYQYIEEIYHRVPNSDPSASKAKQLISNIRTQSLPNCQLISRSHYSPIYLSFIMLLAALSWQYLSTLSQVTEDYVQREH
Experimental: In vitro inhibition of squalene synthase may be measured by the following procedure.
Rat liver microsomal squalene synthase activity was measured using radioactive farnesyl diphosphate as a substrate and quantitating squalene synthesis by counting the radioactive squalene formed.
Rat liver microsomes, the source of enzyme, were prepared according to the method of Gillies, P. J., et al., Exp. Molec. Pathol. 44: 329-339 (1986), a modification of the procedure of Erickson, S. K., and Cooper, A. D., Metabolism, 29: 991-996 (1980). Approximately 30 μg of microsomal protein was incubated for 10 minutes at 37° C. with 11 μM of ^3 H-farnesyl diphosphate, 49 mCi/mmol, and test compound in the presence of squalene (2 μL), Mg^++, KF, reduced B-nicotinamide adenine dinucleotide phosphate, dithiothreitol, and K2 PO4, pH 7.35, in a total volume of 200 μL. Oxygen was excluded from the closed incubation tube by degassing with nitrogen. The reaction was terminated by the addition of ethanolic KOH and after degassing with N2, the microsomal membranes were solubilized by heating at 60° C. for 30 minutes. The squalene was extracted into hexane, and the squalene was separated from all other radioactive molecules by passage over an activated alumina column. The solution was collected in scintillation vials, evaporated to dryness, liquid scintillation fluid was added, and the radioactivity was determined in a liquid scintillation counter. […]

Compound | inhibition at 10 µM [1] | inhibition at 10 µM [2] | inhibition at 1 µM [2] | inhibition at 1 µM [1]
C#CCN(Cc1ccc(Oc2ccccc2)cc1)C(=O)[C@H]1[C@H](C(=O)O)[C@H](C(=O)N(CC#C)Cc2ccc(Oc3ccccc3)cc2)[C@H]1C(=O)O [Example 28, (1α,2β,3β,4α)-1,3-Di(N-propargyl-N-(4-phenoxybenzyl)aminocarbonyl)cyclobutane-2,4-dicarboxylic acid] | 28% | 49% |  | 
O=C(O)C1C(C(=O)N(Cc2ccc(Oc3ccccc3)cc2)Cc2ccco2)C(C(=O)O)C1C(=O)N(Cc1ccc(Oc2ccccc2)cc1)Cc1ccco1 (stereo not drawn) [Example 72, (1α,2β,3β,4α)-1,3-Di[N-(furan-2-ylmethyl)-N-(4-phenoxybenzyl)aminocarbonyl]cyclobutane-2,4-dicarboxylic acid] |  |  | 32% | 82%
O=C(O)[C@H]1[C@H](C(=O)N(Cc2ccc(Oc3ccccc3)cc2)C2CC2)[C@H](C(=O)O)[C@H]1C(=O)N(Cc1ccc(Oc2ccccc2)cc1)C1CC1 [Example 31, (1α,2β,3β,4α)-1,3-Di[N-cyclopropyl-N-(4-phenoxybenzyl)aminocarbonyl]cyclobutane-2,4-dicarboxylic acid] | 74% |  | 23% | 
O=C(O)[C@H]1[C@H](C(=O)N(Cc2ccc(Oc3ccccc3)cc2)CC2CCC2)[C@H](C(=O)O)[C@H]1C(=O)N(Cc1ccc(Oc2ccccc2)cc1)CC1CCC1 [Example 100, (1α,2β,3β,4α)-1,3-Di[N-cyclobutylmethyl-N-(4-phenoxybenzyl)aminocarbonyl]cyclobutane-2,4-dicarboxylic acid] |  |  | 46% | 21%
O=C(O)[C@H]1[C@H](C(=O)N(Cc2ccccc2)Cc2ccc(Oc3ccccc3)cc2)[C@H](C(=O)O)[C@H]1C(=O)N(Cc1ccccc1)Cc1ccc(Oc2ccccc2)cc1 [Example 16, (1α,2β,3β,4α)-1,3-Di[N-benzyl-N-(4-phenoxybenzyl)aminocarbonyl]cyclobutane-2,4-dicarboxylic acid] | 98% |  | 25% | 
C[C@@H](c1ccccc1)N(Cc1ccc(Oc2ccccc2)cc1)C(=O)[C@H]1[C@H](C(=O)O)[C@H](C(=O)N(Cc2ccc(Oc3ccccc3)cc2)[C@@H](C)c2ccccc2)[C@H]1C(=O)O [Example 87, (1α,2β,3β,4α)-1,3-Di[N-(S)-α-Methylbenzyl-N-(4-phenoxybenzyl)aminocarbonyl]cyclobutane-2,4-dicarboxylic acid] | 86% |  | 76% | 
O=C(O)[C@H]1[C@H](C(=O)N(Cc2ccc(Oc3ccccc3)cc2)C2CCC2)[C@H](C(=O)O)[C@H]1C(=O)N(Cc1ccc(Oc2ccccc2)cc1)C1CCC1 [Example 99, (1α,2β,3β,4α)-1,3-Di[N-cyclobutyl-N-(4-phenoxybenzyl)aminocarbonyl]cyclobutane-2,4-dicarboxylic acid] | 52% |  | 20% | 
O=C(O)C1C(C(=O)N(CCSCc2ccccc2)Cc2ccc(Oc3ccccc3)cc2)C(C(=O)O)C1C(=O)N(CCSCc1ccccc1)Cc1ccc(Oc2ccccc2)cc1 (stereo not drawn) [Example 71, (1α,2β,3β,4α)-1,3-Di[N-(2-benzylthioethyl)-N-(4-phenoxybenzyl)aminocarbonyl]cyclobutane-2,4-dicarboxylic acid] |  |  | 25% | 32%
O=C(O)[C@H]1[C@H](C(=O)N(Cc2ccc(Oc3ccccc3)cc2)CC2CCCC2)[C@H](C(=O)O)[C@H]1C(=O)N(Cc1ccc(Oc2ccccc2)cc1)CC1CCCC1 [Example 101, (1α,2β,3β,4α)-1,3-Di[N-cyclopentylmethyl-N-(4-phenoxybenzyl)aminocarbonyl]cyclobutane-2,4-dicarboxylic acid] |  |  | 34% | 26%
C=CCN(Cc1ccc(Oc2ccccc2)cc1)C(=O)[C@H]1[C@H](C(=O)O)[C@H](C(=O)N(CC=C)Cc2ccc(Oc3ccccc3)cc2)[C@H]1C(=O)O [Example 30, (1α,2β,3β,4α)-1,3-Di(N-allyl-N-(4-phenoxybenzyl)aminocarbonyl)cyclobutane-2,4-dicarboxylic acid] | 37% | 63% |  | 

More lines, now with the values ahead:

inhibition at 10 µM [1] | inhibition at 10 µM [2] | inhibition at 1 µM [2] | inhibition at 1 µM [1] | Compound
43% |  | 54% |  | O=C(O)[C@H]1[C@H](C(=O)N(CCCc2ccccc2)Cc2ccc(Oc3ccccc3)cc2)[C@H](C(=O)O)[C@H]1C(=O)N(CCCc1ccccc1)Cc1ccc(Oc2ccccc2)cc1 [Example 79, (1α,2β,3β,4α)-1,3-Di [N-(4-phenoxybenzyl)-N-(3-phenyl-1-propyl)aminocarbonyl]cyclobutane-2,4-dicarboxylic acid]
49% |  | 52% |  | CCN(Cc1ccc(Oc2ccccc2)cc1)C(=O)[C@H]1[C@H](C(=O)O)[C@H](C(=O)N(CC)Cc2ccc(Oc3ccccc3)cc2)[C@H]1C(=O)O [Example 17, (1α,2β,3β,4α)-1,3-Di(N-ethyl-N-(4-phenoxybenzyl)aminocarbonyl)cyclobutane-2,4-dicarboxylic acid]
54% |  | 46% |  | CCCN(Cc1ccc(Oc2ccccc2)c(C)c1)C(=O)C1C(C(=O)O)C(C(=O)N(CCC)Cc2ccc(Oc3ccccc3)c(C)c2)C1C(=O)O (stereo not drawn) [Example 59, (1α,2β,3β,4α)-1,3-Di{N-propyl-N-[(3-methyl-4-phenoxy)benzyl]aminocarbonyl}cyclobutane-2,4-dicarboxylic acid]
 |  | 50% | 31% | CCCN(Cc1ccc(Oc2ccc3ccccc3c2)cc1)C(=O)C1C(C(=O)O)C(C(=O)N(CCC)Cc2ccc(Oc3ccc4ccccc4c3)cc2)C1C(=O)O (stereo not drawn) [Example 58, (1α,2β,3β,4α)-1,3-Di{N-propyl-N-[4-(naphth-2-yloxy)benzyl]aminocarbonyl}cyclobutane-2,4-dicarboxylic acid]
59% |  | 23% |  | CCCN(Cc1ccc(Oc2ccco2)cc1)C(=O)C1C(C(=O)O)C(C(=O)N(CCC)Cc2ccc(Oc3ccco3)cc2)C1C(=O)O (stereo not shown) [Example 54]
49% |  | 52% |  | COCCN(Cc1ccc(Oc2ccccc2)cc1)C(=O)C1C(C(=O)O)C(C(=O)N(CCOC)Cc2ccc(Oc3ccccc3)cc2)C1C(=O)O (stereo not drawn) [Example 68, (1α,2β,3β,4α)-1,3-Di[N-(2-methoxyethyl)-N-(4-phenoxybenzyl)aminocarbonyl]cyclobutane-2,4-dicarboxylic acid]
48% |  | 23% |  | COc1ccc(CCN(Cc2ccc(Oc3ccccc3)cc2)C(=O)[C@H]2[C@H](C(=O)O)[C@H](C(=O)N(CCc3ccc(OC)c(OC)c3)Cc3ccc(Oc4ccccc4)cc3)[C@H]2C(=O)O)cc1OC [Example 77, (1α,2β,3β,4α)-1,3-Di [N-(4-phenoxybenzyl)-N-(3,4-dimethoxyphenethyl)aminocarbonyl]cyclobutane-2,4-dicarboxylic acid]
